Key:
Assay in all cases: relative viability (nuclei count vs DMSO), 5 days (fraction); higher = more cells survive
[1] = compound: CC1=CN=C(N=C1C2=CNC(=C2)C(=O)N[C@H](CO)C3=CC(=CC=C3)Cl)NC4=C(C=C(C=C4)F)Cl [VX-11e] + Cc1nc(Nc2ncc(C(=O)Nc3c(C)cccc3Cl)s2)cc(N2CCN(CCO)CC2)n1 [Dasatinib] (partner 0.075 µM)
Summary of the method: (§1)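 Relative viability is defined as nuclei in treated wells over nuclei in vehicle wells. Duplicate plates were run and medians reported. Lung cancer cell lines in 1536-well plates were dosed by pin tool one day after seeding, with one drug or with a fixed anchor-drug dose plus five library-drug doses (not always all listed) in √10 steps, and nuclei were counted after 5 days.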

[2] = compound: CC1=CN=C(N=C1C2=CNC(=C2)C(=O)N[C@H](CO)C3=CC(=CC=C3)Cl)NC4=C(C=C(C=C4)F)Cl [VX-11e] + Nc1nc2[nH]cc(CCc3ccc(C(=O)N[C@@H](CCC(=O)O)C(=O)O)cc3)c2c(=O)[nH]1 [Pemetrexed] (partner 0.2 µM)
Summary of the method: as §1

[3] = compound: CC1=CN=C(N=C1C2=CNC(=C2)C(=O)N[C@H](CO)C3=CC(=CC=C3)Cl)NC4=C(C=C(C=C4)F)Cl [VX-11e] + CS(=O)(=O)CCNCc1ccc(-c2ccc3ncnc(Nc4ccc(OCc5cccc(F)c5)c(Cl)c4)c3c2)o1 [Lapatinib] (partner 2 µM)
Summary of the method: as §1

[4] = compound: CC1=CN=C(N=C1C2=CNC(=C2)C(=O)N[C@H](CO)C3=CC(=CC=C3)Cl)NC4=C(C=C(C=C4)F)Cl [VX-11e] + C[C@@H](Oc1cc(-c2cnn(C3CCNCC3)c2)cnc1N)c1c(Cl)ccc(F)c1Cl [Crizotinib] (partner 1 µM)
Summary of the method: as §1

Row | Cell Line | relative viability ([1]; first compound 0.04 µM) | relative viability ([1]; first compound 0.1265 µM) | relative viability ([1]; first compound 0.4 µM) | relative viability ([1]; first compound 1.265 µM) | relative viability ([1]; first compound 4 µM) | relative viability ([2]; first compound 0.1265 µM) | relative viability ([2]; first compound 0.4 µM) | relative viability ([2]; first compound 1.265 µM) | relative viability ([2]; first compound 4 µM) | relative viability ([3]; first compound 0.04 µM) | relative viability ([3]; first compound 0.1265 µM) | relative viability ([3]; first compound 0.4 µM) | relative viability ([3]; first compound 1.265 µM) | relative viability ([3]; first compound 4 µM) | relative viability ([2]; first compound 0.04 µM) | relative viability ([4]; first compound 0.04 µM) | relative viability ([4]; first compound 0.1265 µM) | relative viability ([4]; first compound 0.4 µM) | relative viability ([4]; first compound 1.265 µM) | relative viability ([4]; first compound 4 µM)
1 | NCI-H2342 | 0.31 | 0.282 | 0.285 | 0.307 | 0.348 | 0.83 | 0.757 | 0.798 | 0.737 | – | – | – | – | – | – | – | – | – | – | –
2 | HCC-44 | – | – | – | – | – | 0.614 | 0.63 | 0.656 | 0.793 | 0.986 | 0.974 | 0.871 | 0.836 | 0.88 | 0.766 | 0.879 | 0.809 | 0.833 | 0.753 | 0.453
3 | IA-LM | – | – | – | – | – | – | – | – | – | 0.71 | 0.945 | 0.853 | 0.17 | 0.126 | – | 0.931 | 0.961 | 0.697 | 0.271 | 0.116
4 | NCI-H1734 | 0.418 | 0.396 | 0.536 | 0.415 | 0.256 | 0.398 | 0.445 | 0.306 | 0.315 | 0.808 | 1.05 | 0.745 | 0.805 | 0.46 | 0.428 | 0.67 | 0.584 | 0.652 | 0.606 | 0.296
5 | NCI-H358 | 0.17 | 0.125 | 0.0855 | 0.162 | 0.103 | 0.171 | 0.17 | 0.171 | 0.136 | 0.41 | 0.425 | – | 0.391 | 0.274 | 0.188 | 0.692 | 0.509 | – | 0.523 | 0.225
6 | NCI-H650 | 0.418 | 0.467 | 0.425 | 0.414 | 0.398 | 0.903 | 0.984 | 1.05 | 1.11 | – | 0.894 | 0.944 | – | 0.909 | 0.997 | – | 0.538 | 0.711 | – | 0.478
7 | LXF-289 | 0.29 | 0.199 | 0.249 | 0.336 | 0.172 | 0.911 | – | 0.803 | 0.706 | 0.895 | 0.869 | 0.879 | 0.772 | 0.634 | 0.974 | 0.902 | 0.788 | 0.87 | 0.706 | 0.543
8 | NCI-H838 | 0.255 | 0.326 | 0.222 | 0.247 | 0.267 | 0.235 | 0.239 | 0.229 | 0.217 | 0.856 | 0.92 | 0.396 | 0.701 | 0.627 | 0.236 | 0.888 | 0.82 | 0.798 | 0.881 | 0.501
9 | A-427 | 0.751 | 0.574 | 0.488 | 0.232 | 0.114 | 0.983 | 1.1 | 0.966 | 0.606 | 0.966 | 0.942 | 1.03 | 1.05 | 0.584 | 1.02 | 0.92 | 0.721 | 0.55 | 0.688 | 0.311
10 | COR-L23 | 0.486 | 0.453 | 0.442 | 0.355 | 0.208 | 0.196 | 0.213 | 0.217 | 0.179 | 1.3 | 1 | 0.806 | 0.634 | 0.398 | 0.236 | 0.708 | 0.627 | 0.646 | 0.497 | 0.211
11 | NCI-H596 | 0.542 | 0.516 | 0.466 | 0.425 | 0.419 | 0.506 | 0.53 | 0.449 | 0.464 | 1.2 | 0.938 | 0.933 | 0.917 | 0.774 | 0.457 | 0.891 | 1.05 | 1.09 | 0.939 | 0.722
12 | NCI-H1648 | – | – | – | – | – | 0.891 | 0.866 | 0.596 | 0.674 | – | – | – | – | – | – | – | – | – | – | –
13 | SW 900 | 0.59 | 0.588 | 0.137 | 0.585 | 0.385 | 0.452 | – | 0.36 | 0.294 | – | – | – | – | – | 0.49 | – | – | – | – | –
14 | ABC-1 | 0.72 | 0.551 | 0.468 | 0.561 | 0.497 | – | – | – | – | 1.03 | 1.06 | 0.899 | 1.22 | 1.53 | – | 1.24 | 1.07 | 1.06 | 0.892 | 1.09
15 | NCI-H727 | 0.355 | 0.279 | 0.337 | 0.415 | 0.258 | – | – | – | – | 0.699 | 0.591 | 1.19 | 0.501 | 0.307 | – | 0.722 | 0.847 | 0.712 | 0.419 | 0.243
16 | NCI-H522 | 0.647 | 0.849 | 0.719 | 0.72 | 0.605 | 0.936 | 0.962 | 0.76 | 0.59 | – | – | – | – | – | 0.861 | – | – | – | – | –
17 | A549 | – | – | – | – | – | – | – | – | – | 0.898 | 0.903 | 0.832 | 0.211 | 0.135 | – | 0.826 | 0.786 | 0.601 | 0.207 | 0.0915
18 | LCLC-103H | 0.45 | 0.435 | 0.545 | 0.446 | 0.444 | 0.437 | 0.53 | 0.417 | 0.493 | – | – | – | – | – | 0.442 | 1.01 | 1.09 | 0.968 | 0.882 | 0.852
19 | NCI-H441 | 0.685 | 0.814 | – | 0.502 | 0.318 | 0.253 | – | 0.259 | 0.238 | – | – | – | – | – | 0.27 | 0.711 | 0.72 | – | 0.857 | 0.555
20 | NCI-H1299 | – | – | – | – | – | – | – | – | – | 0.984 | 0.953 | 1.1 | 0.918 | 0.559 | – | 0.994 | 0.879 | 0.956 | 0.84 | 0.47
21 | Calu-6 | – | – | – | – | – | – | – | – | – | 1.07 | 1.03 | 1.05 | 0.364 | 0.226 | – | 0.829 | 0.839 | 0.861 | 0.396 | 0.145
22 | ChaGo-K-1 | 0.516 | 0.587 | 0.584 | 0.654 | 0.557 | 0.261 | 0.248 | 0.25 | 0.234 | – | – | – | – | – | 0.268 | 1.19 | – | 1.23 | 1.01 | 1.12

From the supplement of paper PMC10307832
